Test system: MV-4-11 cells
Test: Gene expression microarray analysis (Affymetrix PrimeView) and GSEA
Format: cell-based, human
Parameters: RFU PODN (11730768_x_at) / Fold change /veh PODN (11730768_x_at) / RFU LINC00158 (11744669_a_at) / Fold change /veh LINC00158 (11744669_a_at) / RFU DUSP10 (11751237_a_at) / Fold change /veh DUSP10 (11751237_a_at) / RFU ID3 (11757404_x_at) / Fold change /veh ID3 (11757404_x_at) / RFU PLEKHG5 (11737974_s_at) / Fold change /veh PLEKHG5 (11737974_s_at) / RFU LRRC4B (11730491_at) / Fold change /veh LRRC4B (11730491_at) / RFU GIMAP4 (11747438_a_at) / Fold change /veh GIMAP4 (11747438_a_at) / RFU KRT8 (11758183_x_at) / Fold change /veh KRT8 (11758183_x_at) / RFU CNN1 (11734310_a_at) / Fold change /veh CNN1 (11734310_a_at) / RFU VPS37D (11726825_at) / Fold change /veh VPS37D (11726825_at) / RFU C10orf10 (11716522_x_at) / Fold change /veh C10orf10 (11716522_x_at) / RFU KIR2DL2 /// KIR2DL4 /// KIR2DL5A /// KIR2DL5B /// KIR2DS1 /// KIR2DS2 /// KIR2DS3 /// KIR2DS4 /// KIR3DL3 /// KIR3DL3 /// KIR3DS1 (11738374_at) / Fold change /veh KIR2DL2 /// KIR2DL4 /// KIR2DL5A /// KIR2DL5B /// KIR2DS1 /// KIR2DS2 /// KIR2DS3 /// KIR2DS4 /// KIR3DL3 /// KIR3DL3 /// KIR3DS1 (11738374_at) / RFU C1QL1 (11718748_at) / Fold change /veh C1QL1 (11718748_at) / RFU TMPRSS4 (11747572_a_at) / Fold change /veh TMPRSS4 (11747572_a_at) / RFU HAMP (11756126_x_at) / Fold change /veh HAMP (11756126_x_at) / RFU RNFT2 (11725882_a_at) / Fold change /veh RNFT2 (11725882_a_at) / RFU NR4A2 (11747474_a_at) / Fold change /veh NR4A2 (11747474_a_at) / RFU ABCC12 (11746883_a_at) / Fold change /veh ABCC12 (11746883_a_at) / RFU TMEM136 (11760407_x_at) / Fold change /veh TMEM136 (11760407_x_at) / RFU CLDN22 /// WWC2 (11732394_at) / Fold change /veh CLDN22 /// WWC2 (11732394_at) / RFU HLA-DPB1 (11760878_x_at) / Fold change /veh HLA-DPB1 (11760878_x_at) / RFU SPINT1 (11716480_a_at) / Fold change /veh SPINT1 (11716480_a_at) / RFU GAP43 (11754022_s_at) / Fold change /veh GAP43 (11754022_s_at) / RFU A4GNT (11735810_at) / Fold change /veh A4GNT (11735810_at) / RFU PRB3 (11715151_x_at) / Fold change /veh PRB3 (11715151_x_at) / RFU TUBB4B (11761932_at) / Fold change /veh TUBB4B (11761932_at) / RFU CAPN14 (11732068_a_at) / Fold change /veh CAPN14 (11732068_a_at) / RFU TMCC2 (11721928_a_at) / Fold change /veh TMCC2 (11721928_a_at) / RFU IRGQ (11745062_a_at) / Fold change /veh IRGQ (11745062_a_at) / RFU FAM174B (11720279_a_at) / Fold change /veh FAM174B (11720279_a_at) / RFU TMPRSS4 (11748680_a_at) / Fold change /veh TMPRSS4 (11748680_a_at) / RFU FAM212B (11763350_a_at) / Fold change /veh FAM212B (11763350_a_at) / RFU PLEKHG5 (11743358_a_at) / Fold change /veh PLEKHG5 (11743358_a_at) / RFU ZSCAN30 (11745921_a_at) / Fold change /veh ZSCAN30 (11745921_a_at) / RFU CMKLR1 (11741424_a_at) / Fold change /veh CMKLR1 (11741424_a_at) / RFU LOC101060620 /// MAPK8IP1 (11723275_at) / Fold change /veh LOC101060620 /// MAPK8IP1 (11723275_at) / RFU SPTSSB (11747773_x_at) / Fold change /veh SPTSSB (11747773_x_at) / RFU PRSS12 (11739890_at) / Fold change /veh PRSS12 (11739890_at) / RFU BIN1 (11741810_x_at) / Fold change /veh BIN1 (11741810_x_at) / RFU WNT11 (11732464_a_at) / Fold change /veh WNT11 (11732464_a_at) / RFU C10orf10 (11716521_a_at) / Fold change /veh C10orf10 (11716521_a_at) / RFU C5orf56 (11738089_at) / Fold change /veh C5orf56 (11738089_at) / RFU CYB561 (11721691_x_at) / Fold change /veh CYB561 (11721691_x_at) / RFU ANKRD19P (11752326_a_at) / Fold change /veh ANKRD19P (11752326_a_at) / RFU OR2T12 /// OR2T33 /// OR2T8 (11738714_s_at) / Fold change /veh OR2T12 /// OR2T33 /// OR2T8 (11738714_s_at) / RFU VCAN (11748164_a_at) / Fold change /veh VCAN (11748164_a_at) / RFU JSRP1 (11732532_at) / Fold change /veh JSRP1 (11732532_at) / RFU KRTAP10-11 (11738290_x_at) / Fold change /veh KRTAP10-11 (11738290_x_at) / RFU MYO3A (11730013_a_at) / Fold change /veh MYO3A (11730013_a_at) / RFU EBF3 (11725865_a_at) / Fold change /veh EBF3 (11725865_a_at) / RFU CAMK2N1 (11719241_x_at) / Fold change /veh CAMK2N1 (11719241_x_at) / RFU C5orf56 (11738088_a_at) / Fold change /veh C5orf56 (11738088_a_at) / RFU OLFML3 (11715873_a_at) / Fold change /veh OLFML3 (11715873_a_at) / RFU LOC100653217 /// NTM (11731650_a_at) / Fold change /veh LOC100653217 /// NTM (11731650_a_at) / RFU MAPK11 (11762145_a_at) / Fold change /veh MAPK11 (11762145_a_at) / RFU FIZ1 (11724087_x_at) / Fold change /veh FIZ1 (11724087_x_at) / RFU OASL (11726364_x_at) / Fold change /veh OASL (11726364_x_at) / RFU SOX15 (11748057_x_at) / Fold change /veh SOX15 (11748057_x_at) / RFU CD79A (11719716_a_at) / Fold change /veh CD79A (11719716_a_at) / RFU HIST1H1D (11736915_at) / Fold change /veh HIST1H1D (11736915_at) / RFU CASKIN2 (11723855_a_at) / Fold change /veh CASKIN2 (11723855_a_at) / RFU LOC730098 (11760151_x_at) / Fold change /veh LOC730098 (11760151_x_at) / RFU OR4N2 (11742367_at) / Fold change /veh OR4N2 (11742367_at) / RFU PRRT2 (11749266_a_at) / Fold change /veh PRRT2 (11749266_a_at) / RFU SNX32 (11753110_a_at) / Fold change /veh SNX32 (11753110_a_at) / RFU CDHR5 (11726645_a_at) / Fold change /veh CDHR5 (11726645_a_at) / RFU RCAN1 (11760418_a_at) / Fold change /veh RCAN1 (11760418_a_at) / RFU FAM167A (11723789_a_at) / Fold change /veh FAM167A (11723789_a_at) / RFU FAM26E (11764081_at) / Fold change /veh FAM26E (11764081_at) / RFU ISYNA1 (11749810_s_at) / Fold change /veh ISYNA1 (11749810_s_at) / RFU ACY1 (11761880_at) / Fold change /veh ACY1 (11761880_at) / RFU 11764098_at / Fold change /veh 11764098_at / RFU SAMD14 (11745864_x_at) / Fold change /veh SAMD14 (11745864_x_at) / RFU NPB (11741838_a_at) / Fold change /veh NPB (11741838_a_at) / RFU TMPRSS6 (11731388_a_at) / Fold change /veh TMPRSS6 (11731388_a_at) / RFU KRTAP10-2 (11738614_at) / Fold change /veh KRTAP10-2 (11738614_at) / RFU ARHGAP8 /// PRR5-ARHGAP8 (11727945_x_at) / Fold change /veh ARHGAP8 /// PRR5-ARHGAP8 (11727945_x_at) / RFU KRTAP5-7 /// NADSYN1 (11734609_at) / Fold change /veh KRTAP5-7 /// NADSYN1 (11734609_at) / RFU RASL12 (11751679_a_at) / Fold change /veh RASL12 (11751679_a_at) / RFU CDKN2B (11736163_a_at) / Fold change /veh CDKN2B (11736163_a_at) / RFU PRF1 (11729649_at) / Fold change /veh PRF1 (11729649_at) / RFU, ZNF638 /// ZNF638-IT1 / Fold change vs veh, ZNF638 /// ZNF638-IT1 / RFU, PANK3 / Fold change vs veh, PANK3 / RFU, SH3YL1 / Fold change vs veh, SH3YL1 / RFU, ZEB2 / Fold change vs veh, ZEB2 / RFU, NRIP1 / Fold change vs veh, NRIP1 / RFU, PTTG1IP / Fold change vs veh, PTTG1IP / RFU, CAPN2 / Fold change vs veh, CAPN2 / RFU, MED14 / Fold change vs veh, MED14 / RFU, SNORA58 / Fold change vs veh, SNORA58 / RFU, C1orf63 / Fold change vs veh, C1orf63 / RFU, LRRFIP1 / Fold change vs veh, LRRFIP1 / RFU, NDUFAF7 / Fold change vs veh, NDUFAF7 / RFU, SLC12A2 / Fold change vs veh, SLC12A2 / RFU, IBTK / Fold change vs veh, IBTK / RFU, ESF1 / Fold change vs veh, ESF1 / Fold change vs veh, TMEM50B / RFU, TAOK1 / Fold change vs veh, TAOK1 / RFU, ACBD3 / Fold change vs veh, ACBD3 / RFU, TMA16 / Fold change vs veh, TMA16 / RFU, RWDD3 / Fold change vs veh, RWDD3 / RFU, BCAT1 / Fold change vs veh, BCAT1 / RFU, EDEM3 / Fold change vs veh, EDEM3 / RFU, TMEM33 / Fold change vs veh, TMEM33 / RFU, WDR75 / Fold change vs veh, WDR75 / RFU, AHCTF1 / Fold change vs veh, AHCTF1 / RFU, TFRC / Fold change vs veh, TFRC / RFU, ZDHHC17 / Fold change vs veh, ZDHHC17 / RFU, NOM1 / Fold change vs veh, NOM1 / RFU, ARL8B / Fold change vs veh, ARL8B / RFU, ZBTB11 / Fold change vs veh, ZBTB11 / RFU, TAMM41 / Fold change vs veh, TAMM41 / RFU, KIAA1704 /// LOC100996395 / Fold change vs veh, KIAA1704 /// LOC100996395 / RFU, ING1 / Fold change vs veh, ING1 / RFU, TRMT61B / Fold change vs veh, TRMT61B / RFU, FUBP3 / Fold change vs veh, FUBP3 / RFU, TP53 / Fold change vs veh, TP53 / RFU, TNKS2 / Fold change vs veh, TNKS2 / RFU, ZFP14 / Fold change vs veh, ZFP14 / RFU, ACTR2 / Fold change vs veh, ACTR2 / RFU, PPP3R1 / Fold change vs veh, PPP3R1 / RFU, PIK3R1 / Fold change vs veh, PIK3R1 / RFU, HNRNPA1 / Fold change vs veh, HNRNPA1 / RFU, RNF170 / Fold change vs veh, RNF170 / RFU, ZNF28 / Fold change vs veh, ZNF28 / RFU, RNGTT / Fold change vs veh, RNGTT / RFU, OGT / Fold change vs veh, OGT / RFU, BRD1 / Fold change vs veh, BRD1 / RFU, MARS / Fold change vs veh, MARS / RFU, ZNF655 / Fold change vs veh, ZNF655 / RFU, FAHD1 / Fold change vs veh, FAHD1 / RFU, BDP1 / Fold change vs veh, BDP1 / RFU, LRRCC1 / Fold change vs veh, LRRCC1 / RFU, ARID1A / Fold change vs veh, ARID1A / RFU, ZNF146 / Fold change vs veh, ZNF146 / RFU, ZNF330 / Fold change vs veh, ZNF330 / RFU, GPN3 / Fold change vs veh, GPN3 / RFU, C9orf123 / Fold change vs veh, C9orf123 / RFU, N4BP2L2 / Fold change vs veh, N4BP2L2 / RFU, ARFIP1 / Fold change vs veh, ARFIP1 / RFU, FAM179B / Fold change vs veh, FAM179B / RFU, BCL10 / Fold change vs veh, BCL10 / RFU, UHRF1BP1L / Fold change vs veh, UHRF1BP1L / RFU, BET1 / Fold change vs veh, BET1 / RFU, CNOT2 / Fold change vs veh, CNOT2 / RFU, ZNF268 / Fold change vs veh, ZNF268 / Fold change vs veh, ZNF507 / RFU, DGCR2 / Fold change vs veh, DGCR2 / RFU, WDSUB1 / Fold change vs veh, WDSUB1 / Fold change vs veh, HSP90B1 /// MIR3652 / RFU, ADSS / Fold change vs veh, ADSS / RFU, GK / Fold change vs veh, GK / RFU, ZNF148 / Fold change vs veh, ZNF148 / RFU, TAF9 / Fold change vs veh, TAF9 / RFU, SLC1A5 / Fold change vs veh, SLC1A5 / RFU, SLMO2 / Fold change vs veh, SLMO2 / RFU, ABCC4 / Fold change vs veh, ABCC4 / RFU, LOC101060439 /// RAP1B / Fold change vs veh, LOC101060439 /// RAP1B / RFU, RFX7 / Fold change vs veh, RFX7 / RFU, GTPBP10 / Fold change vs veh, GTPBP10 / RFU, CNEP1R1 / Fold change vs veh, CNEP1R1 / RFU, BIVM-ERCC5 /// ERCC5 / Fold change vs veh, BIVM-ERCC5 /// ERCC5 / RFU, ILF3 / Fold change vs veh, ILF3 / RFU 11762660_at / Fold change /veh 11762660_at / RFU VCAN (11757783_s_at) / Fold change /veh VCAN (11757783_s_at) / RFU DDX43 (11728927_at) / Fold change /veh DDX43 (11728927_at) / RFU KRT8 (11758188_x_at) / Fold change /veh KRT8 (11758188_x_at) / RFU NKD1 (11759106_at) / Fold change /veh NKD1 (11759106_at) / RFU SRD5A1 (11742802_a_at) / Fold change /veh SRD5A1 (11742802_a_at) / RFU TPSAB1 /// TPSB2 (11721975_s_at) / Fold change /veh TPSAB1 /// TPSB2 (11721975_s_at) / RFU GSTM3 (11746129_a_at) / Fold change /veh GSTM3 (11746129_a_at) / RFU IL23R (11737362_x_at) / Fold change /veh IL23R (11737362_x_at) / RFU TMEM51 (11727254_a_at) / Fold change /veh TMEM51 (11727254_a_at) / RFU PIWIL2 (11732686_x_at) / Fold change /veh PIWIL2 (11732686_x_at) / RFU ORM1 (11744905_x_at) / Fold change /veh ORM1 (11744905_x_at) / RFU CCDC152 (11743942_at) / Fold change /veh CCDC152 (11743942_at) / RFU ECM1 (11717891_a_at) / Fold change /veh ECM1 (11717891_a_at) / RFU IL23R (11748794_a_at) / Fold change /veh IL23R (11748794_a_at) / RFU TNFAIP8L3 (11732012_x_at) / Fold change /veh TNFAIP8L3 (11732012_x_at) / RFU MBOAT4 (11741988_at) / Fold change /veh MBOAT4 (11741988_at) / RFU 11764193_at / Fold change /veh 11764193_at / RFU TMEM53 (11763286_at) / Fold change /veh TMEM53 (11763286_at) / RFU MAGEB2 (11727129_at) / Fold change /veh MAGEB2 (11727129_at) / RFU TMEM200A (11744735_a_at) / Fold change /veh TMEM200A (11744735_a_at) / RFU CCDC152 (11751479_a_at) / Fold change /veh CCDC152 (11751479_a_at) / RFU FAM211A (11726209_a_at) / Fold change /veh FAM211A (11726209_a_at) / RFU RGS16 (11746705_a_at) / Fold change /veh RGS16 (11746705_a_at) / RFU VCAN (11755009_s_at) / Fold change /veh VCAN (11755009_s_at) / RFU RHOB (11743442_s_at) / Fold change /veh RHOB (11743442_s_at) / RFU RGS16 (11720943_a_at) / Fold change /veh RGS16 (11720943_a_at) / RFU RGS16 (11720944_at) / Fold change /veh RGS16 (11720944_at) / RFU, VPS4B / Fold change vs veh, VPS4B / RFU, CREB1 / Fold change vs veh, CREB1 / RFU, DNAJC13 / Fold change vs veh, DNAJC13 / RFU, GNAQ / Fold change vs veh, GNAQ / RFU, CDK5R1 / Fold change vs veh, CDK5R1 / RFU, ZRANB3 / Fold change vs veh, ZRANB3 / RFU, CUL4A / Fold change vs veh, CUL4A / RFU, CCNY / Fold change vs veh, CCNY / RFU, UFL1 / Fold change vs veh, UFL1 / RFU, COG3 / Fold change vs veh, COG3 / RFU, DIAPH2 / Fold change vs veh, DIAPH2 / RFU, SKA2 / Fold change vs veh, SKA2 / RFU, AFF3 / Fold change vs veh, AFF3 / RFU, LMF1 / Fold change vs veh, LMF1 / RFU, IPO11 / Fold change vs veh, IPO11 / RFU, DFFB / Fold change vs veh, DFFB / RFU, FOXP1 / Fold change vs veh, FOXP1 / RFU, CARD8 / Fold change vs veh, CARD8 / RFU, STRN3 / Fold change vs veh, STRN3 / RFU, ADK / Fold change vs veh, ADK / RFU, RASSF2 / Fold change vs veh, RASSF2 / RFU, WIPF1 / Fold change vs veh, WIPF1 / RFU, LARP1B / Fold change vs veh, LARP1B / RFU, RASA1 / Fold change vs veh, RASA1 / RFU, RB1 / Fold change vs veh, RB1 / RFU, PPFIA1 / Fold change vs veh, PPFIA1 / RFU, MAT2A / Fold change vs veh, MAT2A / RFU, CCT5 / Fold change vs veh, CCT5 / RFU, WDR92 / Fold change vs veh, WDR92 / RFU, CUX1 / Fold change vs veh, CUX1 / RFU, TTC7A / Fold change vs veh, TTC7A / RFU, TMEM135 / Fold change vs veh, TMEM135 / RFU, DEPTOR / Fold change vs veh, DEPTOR / RFU, CPM / Fold change vs veh, CPM / RFU, DNAJB6 / Fold change vs veh, DNAJB6 / RFU, CACNA2D3 / Fold change vs veh, CACNA2D3 / RFU, DTX4 / Fold change vs veh, DTX4 / RFU, TFCP2 / Fold change vs veh, TFCP2 / RFU, GMCL1 /// GMCL1P1 / Fold change vs veh, GMCL1 /// GMCL1P1 / RFU, AEBP2 / Fold change vs veh, AEBP2 / RFU, SNHG1 /// SNORD22 /// SNORD25 /// SNORD26 /// SNORD27 /// SNORD28 /// SNORD29 /// SNORD31 / Fold change vs veh, SNHG1 /// SNORD22 /// SNORD25 /// SNORD26 /// SNORD27 /// SNORD28 /// SNORD29 /// SNORD31 / Fold change (Aza/veh), C12orf56 (ProbeSet 11735607_a_at) / Fold change (ACY-1035/veh), C12orf56 (ProbeSet 11735607_a_at) / Fold change (Aza/veh), FGFR1OP (ProbeSet 11751329_s_at) / Fold change (ACY-1035/veh), FGFR1OP (ProbeSet 11751329_s_at) / Fold change (Aza/veh), VPS36 (ProbeSet 11739960_a_at) / Fold change (ACY-1035/veh), VPS36 (ProbeSet 11739960_a_at) / RFU SYPL1 (11715823_x_at) / Fold change /veh SYPL1 (11715823_x_at) / RFU IGFBP7 (11715501_s_at) / Fold change /veh IGFBP7 (11715501_s_at) / RFU REEP3 (11722064_at) / Fold change /veh REEP3 (11722064_at) / RFU IGLL1 (11728026_x_at) / Fold change /veh IGLL1 (11728026_x_at): dose or concentration left out as unconfirmed
Conditions: ProbeSet 11745428_a_at; LIST D

Nc1ncn([C@@H]2O[C@H](CO)[C@@H](O)[C@H]2O)c(=O)n1 [azacitidine]
RFU, DFFB: 92.76 RFU
